For assay [1], the target named is T1, Neutral amino acid transporter B(0) (Homo sapiens, UniProt Q15758).
T1 sequence (Q15758 whole entry): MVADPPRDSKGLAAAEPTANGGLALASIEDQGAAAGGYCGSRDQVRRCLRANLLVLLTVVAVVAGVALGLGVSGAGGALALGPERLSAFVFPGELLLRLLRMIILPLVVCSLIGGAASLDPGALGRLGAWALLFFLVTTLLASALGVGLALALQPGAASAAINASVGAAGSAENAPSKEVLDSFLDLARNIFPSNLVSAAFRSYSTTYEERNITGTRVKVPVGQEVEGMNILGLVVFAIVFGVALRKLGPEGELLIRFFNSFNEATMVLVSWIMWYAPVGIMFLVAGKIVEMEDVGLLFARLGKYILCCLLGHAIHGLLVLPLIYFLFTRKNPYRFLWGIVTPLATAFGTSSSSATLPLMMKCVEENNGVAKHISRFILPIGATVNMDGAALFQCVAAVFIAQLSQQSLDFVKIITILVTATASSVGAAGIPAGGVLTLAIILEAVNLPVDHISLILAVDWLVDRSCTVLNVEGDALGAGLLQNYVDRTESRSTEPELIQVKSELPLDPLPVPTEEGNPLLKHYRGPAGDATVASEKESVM
As to the kind of experiment: Inhibition of ASCT2 (unknown origin)-mediated glutamine transport.

For assay [2], the target named is T2, Amino acid transporter (Rattus norvegicus, UniProt Q9Z1J7).
T2 sequence (Q9Z1J7 whole entry): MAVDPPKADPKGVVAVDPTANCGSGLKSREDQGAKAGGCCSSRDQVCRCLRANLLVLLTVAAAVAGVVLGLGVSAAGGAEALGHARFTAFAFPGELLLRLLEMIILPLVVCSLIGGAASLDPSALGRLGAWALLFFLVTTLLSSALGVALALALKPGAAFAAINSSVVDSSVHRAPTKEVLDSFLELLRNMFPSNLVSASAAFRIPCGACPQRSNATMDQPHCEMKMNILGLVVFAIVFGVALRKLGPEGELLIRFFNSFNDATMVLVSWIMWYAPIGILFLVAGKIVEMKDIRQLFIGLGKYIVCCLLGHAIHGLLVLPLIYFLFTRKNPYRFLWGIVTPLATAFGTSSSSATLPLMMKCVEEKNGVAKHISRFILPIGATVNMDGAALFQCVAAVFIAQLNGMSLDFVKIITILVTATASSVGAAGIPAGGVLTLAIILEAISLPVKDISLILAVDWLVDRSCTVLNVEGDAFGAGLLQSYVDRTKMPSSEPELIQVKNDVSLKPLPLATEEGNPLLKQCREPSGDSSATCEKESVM
Put plainly: Inhibition of ASCT2-mediated glutamine transport in rat C6 cells using [3H]-glutamine after 15 mins by scintillation counting. Format: cell-based.

Assay [3] concerns the target T1, Neutral amino acid transporter B(0). Put plainly: Inhibition of ASCT2-mediated glutamine transport in human HEK293 cells using [3H]-glutamine after 15 mins by scintillation counting. In kind it is cell-based.

The IC50 is the concentration that gives 50% inhibition.

For the compound `N#Cc1cc(Br)ccc1/N=c1\ssnc1Cl`, the IC50 in assay [1] was 3.7 µM.

In assay [2], `N[C@@H](CCN(Cc1ccccc1OCc1ccccc1F)Cc1ccccc1OCc1ccccc1F)C(=O)O` registered an IC50 of 3.3 µM.

As to `N[C@@H](CCN(Cc1ccccc1OCc1cccc(Cl)c1)Cc1ccccc1OCc1cccc(Cl)c1)C(=O)O`, the IC50 in assay [2] is 12.7 µM; in assay [3] it was 50.8 µM.

Turning to `COc1cccc(COc2ccccc2CN(CC[C@H](N)C(=O)O)Cc2ccccc2OCc2cccc(OC)c2)c1`, the IC50 stood at 5.1 µM in assay [2] and 7.2 µM in assay [3].

On to `N[C@@H](CCN(Cc1ccccc1OCc1cccnc1)Cc1ccccc1OCc1cccnc1)C(=O)O`, for which the IC50 in assay [2] stood at 17.3 µM; in assay [3], 69.1 µM.

For `N[C@@H](CCN(Cc1ccccc1OCc1ccccc1Cl)Cc1ccccc1OCc1ccccc1Cl)C(=O)O`, the IC50 is 18.4 µM in assay [2] and 40.1 µM in assay [3].

As for `Cc1ccccc1COc1ccccc1CN(CC[C@H](N)C(=O)O)Cc1ccccc1OCc1ccccc1C`, the IC50 in assay [2] was 41.7 µM; in assay [3], 25.6 µM.

For `N[C@@H](CCN(Cc1ccccc1Oc1ccccn1)Cc1ccccc1Oc1ccccn1)C(=O)O`, the IC50 in assay [2] stood at 68.2 µM; in assay [3], 59.6 µM.

`N[C@@H](CCN(Cc1ccccc1Oc1cccc(F)c1)Cc1ccccc1Oc1cccc(F)c1)C(=O)O` showed an IC50 in assay [2] of 36.3 µM.

For the compound `N[C@@H](CCN(Cc1ccccc1Oc1ccc(F)cc1)Cc1ccccc1Oc1ccc(F)cc1)C(=O)O`, the 50% inhibitory concentration (IC50) in assay [2] was 10.5 µM; in assay [3], 142 µM.

Take `N[C@@H](CCN(Cc1ccccc1Oc1ccccc1F)Cc1ccccc1Oc1ccccc1F)C(=O)O`: the IC50 worked out at 1.8 µM in assay [2] and 33.8 µM in assay [3].

For `N[C@@H](CCN(Cc1ccccc1OCc1ccc(Cl)cc1)Cc1ccccc1OCc1ccc(Cl)cc1)C(=O)O`, the concentration for half-maximal inhibition (IC50) came to 20.1 µM in assay [2] and 33.7 µM in assay [3].

As for `N[C@@H](COC(=O)c1ccc(-c2ccccc2)cc1)C(=O)O`, the IC50 in assay [1] was 30 µM. This lies in the double-digit micromolar range.

`N[C@@H](CCN(Cc1ccccc1OCc1ccc(F)cc1)Cc1ccccc1OCc1ccc(F)cc1)C(=O)O` came in with an IC50 in assay [2] of 11.2 µM. This counts as double-digit micromolar.

For `COc1ccc(Oc2ccccc2CN(CC[C@H](N)C(=O)O)Cc2ccccc2Oc2ccc(OC)cc2)cc1`, the IC50 in assay [2] amounted to 8.7 µM; in assay [3], 11.9 µM.

Regarding `Cc1ccc(COc2ccccc2CN(CC[C@H](N)C(=O)O)Cc2ccccc2OCc2ccc(C)cc2)cc1`, the results for the concentration for half-maximal inhibition (IC50) in assay [2] and in assay [3] were 86.4 µM and 17.5 µM, respectively.

For the compound `N[C@@H](CCC(=O)Nc1ccc([N+](=O)[O-])cc1)C(=O)O`, the IC50 in assay [3] came out at 1200 µM; in assay [1], 1000 µM.

For the compound `N[C@@H](CCN(Cc1ccccc1OCc1ccccn1)Cc1ccccc1OCc1ccccn1)C(=O)O`, the half-maximal inhibitory concentration (IC50) is 8.4 µM in assay [2] and 48.3 µM in assay [3].

`N[C@@H](CCN(Cc1ccccc1Oc1ccc(Cl)cc1)Cc1ccccc1Oc1ccc(Cl)cc1)C(=O)O` displayed an IC50 in assay [3] of 26 µM.

`COc1cccc(Oc2ccccc2CN(CC[C@H](N)C(=O)O)Cc2ccccc2Oc2cccc(OC)c2)c1`: the IC50 came out at 1.3 µM in assay [2] and 57.2 µM in assay [3].
